Here are results for 13 compounds from US20240408107A1, “LACTAM PYRROLIDINE-PYRAZOLES AS PYRUVATE KINASE ACTIVATORS” (Global Blood Therapeutics, Inc., priority 2021, published 2024).

For assay [1], the target named is T1, human pyruvate kinase R (PKR) (Homo sapiens, UniProt P30613).
T1 construct: Human pyruvate kinase R (PKR), residues 14-574; 6xHis (N, cleaved yes); 8xArg (N, cleaved yes); SUMO (N, cleaved yes); host or cells: E. coli
Put plainly: Biochemical assay for activation of pyruvate kinase R (Kinase-Glo luminescence, ATP generation). As to conditions: for AC50: PKR biochemical assay, 0.1 nM PKR; for Emax: maximal activation level relative to the activation level achieved by AG-348 @ 10 μM. The protocol:
Human pyruvate kinase R (PKR), residues 14-574, and human pyruvate kinase M2, residues 1-531, were cloned into expression plasmids and obtained from ATUM Bio (Newark, CA). Proteins were translated as fusions with 6×-His,8×-Arg, and SUMO at the N-terminus. A third construct of human PKR was truncated, residues 50-574, and similarly cloned for use in crystallography experiments. All proteins were cloned, expressed in E. coli, and purified using similar protocols. Cells were grown at 30° C. in Luria-Bertani broth supplemented with 0.4% glucose to OD600=0.8 and induced with 0.4 mM IPTG at 16° C. for 18 hours. Cells were harvested by centrifugation, resuspended in 50 mM potassium phosphate pH 8.0, 500 mM NaCl, 25 mM imidazole pH 8.0, and 3 mM β-mercaptoethanol. Cells were lysed using a LM20 microfluidizer from Microfluidics (Westwood, MA). The crude lysate was immediately supplemented with 0.2 mM phenylmethylsulfonyl fluoride (PMSF) and centrifuged at 20,000 g for 20 minutes. The soluble fraction was subsequently incubated with 2 mL Ni-NTA (GE Healthcare) per 1,000 ODs for 1 hour at 4° C. Following incubation with the Ni-NTA resin, lysate was removed by pelleting resin at 2,500 g for 3 minutes and washed 3 times with 9 bed volumes of 50 mM potassium phosphate pH 8.0, 500 mM NaCl, 25 mM imidazole, and 3 mM β-mercaptoethanol. Following the batch wash Ni-NTA resin was loaded onto a gravity column and His-tagged protein was eluted with 6 bed volumes of 10 mM Tris/HCl pH 8.0, 200 mM NaCl, 500 mM imidazole, and 3 mM β-mercaptoethanol. Eluted protein was dialyzed overnight against 10 mM Tris/HCl pH 8.0, 200 mM NaCl, and 1 mM DTT and the 6×-His-8×-Arg-SUMO-tag was cleaved using a 20:1 molar ratio of protein:3C protease. The protein was purified by anion exchange chromatography on a HiTrapQ or MonoQ 10/100 GL column (GE Healthcare) via a linear NaCl gradient and twice by size exclusion chromatography using a Superdex S200 26/60 column (GE Healthcare) run in 10 mM Tris/HCl pH 8.0, 200 mM NaCl, 10 mM MgCl2, 1 mM DTT. Proteins were concentrated to ˜12 mg/mL for crystallization and flash frozen for storage.
Activation of pyruvate kinase R (PKR) and pyruvate kinase M2 (PKM2) were measured using a luminescence based measurement of ATP generation and the Kinase-Glo luminescent kinase reagent kit. 0.1 nM of PKR or PKM2 was incubated for 1 hour with 0.3 mM ADP, 2 mM FBP, 1% DMSO, compound and Assay Buffer mix (500 mM Tris/HCl pH 7.5, 500 mM NaCl, 50 mM MgCl2, BSA, and 2 mM DTT, in a total reaction volume of 30 uL. After one hour PEP was added to the reaction at a final concentration of 0.1 mM and incubated for another hour at room temperature. 30 uL of KinaseGlo reagent was added and the reaction was incubated for 15 minutes. Endpoint luminescence data was measured using an EnVision plate reader (PerkinElmer). The assay results are provided in Table 2 for PKR.
Background: In Kinase-Glo more light means more ATP remaining.

Assay [2] deals with T2, Pyruvate Kinase M2 (PKM2) in H1299 cells (Homo sapiens, UniProt P14618).
T2 construct: endogenous in cells; host or cells: H1299 cells
T2 sequence (P14618 2-531 limits assumed): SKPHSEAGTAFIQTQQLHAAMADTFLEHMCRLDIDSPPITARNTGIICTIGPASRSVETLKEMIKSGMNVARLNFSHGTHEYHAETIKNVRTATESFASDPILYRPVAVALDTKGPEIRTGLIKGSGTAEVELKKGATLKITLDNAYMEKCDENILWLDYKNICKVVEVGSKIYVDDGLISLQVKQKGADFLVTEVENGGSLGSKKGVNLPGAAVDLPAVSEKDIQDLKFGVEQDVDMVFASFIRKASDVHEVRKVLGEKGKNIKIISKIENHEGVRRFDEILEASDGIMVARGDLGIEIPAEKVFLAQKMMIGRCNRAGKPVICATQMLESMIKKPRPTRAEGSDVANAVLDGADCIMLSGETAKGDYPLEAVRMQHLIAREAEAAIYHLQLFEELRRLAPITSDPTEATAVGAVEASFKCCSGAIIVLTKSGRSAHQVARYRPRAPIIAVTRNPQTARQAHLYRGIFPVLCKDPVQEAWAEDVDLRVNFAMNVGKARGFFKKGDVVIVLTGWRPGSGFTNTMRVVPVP
Nature of the assay: Cell based assay for activation of pyruvate kinase M2 in lung carcinoma cell line (H1299, NADH/LDH coupled assay of lysate). The note with it: PKM2 cellular assay; for AC50: H1299 cells, 90 minutes with compound; for PKM2 % activation: maximal activation level relative to the activation level achieved by AG-348 @ 10 μM. On the procedure:
H1299 cells were seeded in 96-well plates at 2,000 cells/well (100 uL). Treated plates were incubated overnight at 37° C. with 5% CO2. Compounds were diluted in complete media and added to cells in the presence of 1% DMSO. Cells were incubated with compound for 90 minutes at 37° C. and 5% CO2 before washing three times with PBS to remove residual compound and then lysed in lysis buffer (Cell Signaling). Cell lysate was analyzed using the NADH coupled assay described below with a reaction mixture of 180 uM NADH, 2 mM ADP, 0.5 units of LDH and 0.5 mM of PEP. PKM2 activity was measured at steady state using a coupled enzyme activation system based on NADH consumption. PKM2 produces pyruvate and the coupled system uses lactate dehydrogenase (LDH) to reduce pyruvate to lactate with the concomitant oxidation of NADH to NAD^+. Conversion of NADH to NAD^+ was monitored using a SPECTROstar Nano plate reader (BMG Labtech) at a wavelength of 340 nm and subtraction of background absorbance measured at 750 nm. The change in NADH absorbance after PEP addition was monitored and slope obtained by subtracting baseline at 750 nm followed by least squares fitting to a simple linear regression model. A 10-point curve was generated to calculate the AC50 values by fitting the rates of NADH consumption against increasing concentration of compound.

Assay [3] has as its system PK activity, ATP levels, RBC parameters. The note with it: mouse model of beta-thalassemia; cited from earlier work.

T1 sequence (P30613 14-574): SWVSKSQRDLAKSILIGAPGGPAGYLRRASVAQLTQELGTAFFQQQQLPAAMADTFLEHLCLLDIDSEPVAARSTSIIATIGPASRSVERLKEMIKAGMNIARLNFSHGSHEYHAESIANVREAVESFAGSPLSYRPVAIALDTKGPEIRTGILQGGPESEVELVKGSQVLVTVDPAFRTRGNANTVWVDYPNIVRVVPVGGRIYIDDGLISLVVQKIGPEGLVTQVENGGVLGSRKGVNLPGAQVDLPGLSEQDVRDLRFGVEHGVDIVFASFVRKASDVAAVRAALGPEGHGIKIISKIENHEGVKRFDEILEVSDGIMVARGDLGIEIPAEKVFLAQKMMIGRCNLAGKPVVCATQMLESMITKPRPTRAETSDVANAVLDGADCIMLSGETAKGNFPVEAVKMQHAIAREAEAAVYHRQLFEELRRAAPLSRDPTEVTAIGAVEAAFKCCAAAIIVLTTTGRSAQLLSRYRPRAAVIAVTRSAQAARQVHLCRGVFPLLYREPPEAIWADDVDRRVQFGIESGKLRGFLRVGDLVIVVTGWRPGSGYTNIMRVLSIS

The AC50 is the midpoint of the concentration-response curve, whichever way the signal moves. As a reminder, the Emax is the size of the effect at its maximum, as opposed to the concentration needed. `O=C1Nc2ccccc2C1CC(=O)N1Cc2cn(S(=O)(=O)c3ccc(OC(F)F)cc3)nc2C1` (stereo not drawn) [Compound 10, 3-(2-{2-[4-(difluoromethoxy)benzenesulfonyl]-2H,4H,5H,6H-pyrrolo[3,4-c]pyrazol-5-yl}-2-oxoethyl)-2,3-dihydro-1H-indol-2-one]: in assay [1], the AC50 turned out to be 78 nM and the Emax is 129%. In assay [2], the AC50 is 14 nM and the PKM2 % activation was 165%.

Take `O=C1COc2ccccc2C(C(=O)N2Cc3cn(S(=O)(=O)c4cnn(CC(F)F)c4)nc3C2)N1` (stereo not drawn) [Compound 5, 5-(2-{[1-(2,2-difluoroethyl)-1H-pyrazol-4-yl]sulfonyl}-2H,4H,5H,6H-pyrrolo[3,4-c]pyrazole-5-carbonyl)-2,3,4,5-tetrahydro-1,4-benzoxazepin-3-one]: in assay [1], the AC50 turned out to be 490 nM and the Emax was found to be 91%.

Turning to `CC1(CC(=O)N2Cc3cn(S(=O)(=O)c4cnn(CC(F)F)c4)nc3C2)C(=O)Nc2ccccc21` (stereo not drawn) [Compound 8, 3-[2-(2-{[1-(2,2-difluoroethyl)-1H-pyrazol-4-yl]sulfonyl}-2H,4H,5H,6H-pyrrolo[3,4-c]pyrazol-5-yl)-2-oxoethyl]-3-methyl-2,3-dihydro-1H-indol-2-one], in assay [1], the half-maximal activity concentration (AC50) stood at 1900 nM and the Emax was found to be 95%.

In the case of `O=C(Cn1c(=O)[nH]c2ccccc21)N1Cc2cn(S(=O)(=O)c3cnn(CC(F)F)c3)nc2C1` [Compound 4, 1-[2-(2-{[1-(2,2-difluoroethyl)-1H-pyrazol-4-yl]sulfonyl}-2H,4H,5H,6H-pyrrolo[3,4-c]pyrazol-5-yl)-2-oxoethyl]-2,3-dihydro-1H-1,3-benzodiazol-2-one], in assay [1], the AC50 was 10000 nM and the Emax was determined as 78%.

In assay [1], `O=C1Nc2ccccc2C1CC(=O)N1Cc2cn(S(=O)(=O)c3ccc4ncsc4c3)nc2C1` (stereo not drawn) [Compound 9, 3-{2-[2-(1,3-benzothiazole-6-sulfonyl)-2H,4H,5H,6H-pyrrolo[3,4-c]pyrazol-5-yl]-2-oxoethyl}-2,3-dihydro-1H-indol-2-one] had an AC50 of 28 nM and an Emax of 161%. In assay [2], the AC50 was determined as 100 nM and the PKM2 % activation is reported as 87%.

In assay [1], `O=C(CN1C(=O)Cc2ccccc21)N1Cc2cn(S(=O)(=O)c3ccc(OC(F)F)cc3)nc2C1` [Compound 11, 1-(2-{2-[4-(difluoromethoxy)benzenesulfonyl]-2H,4H,5H,6H-pyrrolo[3,4-c]pyrazol-5-yl}-2-oxoethyl)-2,3-dihydro-1H-indol-2-one] gave an AC50 of 1700 nM and an Emax of 77%.

In assay [1], `O=C(CN1C(=O)Cc2ccccc21)N1Cc2cn(S(=O)(=O)c3cnn(CC(F)F)c3)nc2C1` [Compound 2, 1-[2-(2-{[1-(2,2-difluoroethyl)-1H-pyrazol-4-yl]sulfonyl}-2H,4H,5H,6H-pyrrolo[3,4-c]pyrazol-5-yl)-2-oxoethyl]-2,3-dihydro-1H-indol-2-one] yielded an AC50 of 410 nM and an Emax of 32%.

As to `O=C(Cn1c(=O)oc2ccccc21)N1Cc2cn(S(=O)(=O)c3cnn(CC(F)F)c3)nc2C1` [Compound 3, 3-[2-(2-{[1-(2,2-difluoroethyl)-1H-pyrazol-4-yl]sulfonyl}-2H,4H,5H,6H-pyrrolo[3,4-c]pyrazol-5-yl)-2-oxoethyl]-2,3-dihydro-1,3-benzoxazol-2-one], in assay [1], the AC50 was 1800 nM and the Emax amounted to 60%.

Regarding `O=C1Cc2ccccc2C(C(=O)N2Cc3cn(S(=O)(=O)c4cnn(CC(F)F)c4)nc3C2)N1` (stereo not drawn) [Compound 6, 1-(2-{[1-(2,2-difluoroethyl)-1H-pyrazol-4-yl]sulfonyl}-2H,4H,5H,6H-pyrrolo[3,4-c]pyrazole-5-carbonyl)-1,2,3,4-tetrahydroisoquinolin-3-one], in assay [1], the AC50 amounted to 4400 nM and the Emax came to 84%.

Take `O=C1Nc2ccccc2C1CC(=O)N1Cc2cn(S(=O)(=O)c3cnn(CC(F)F)c3)nc2C1` (stereo not drawn) [Compound 1, 3-[2-(2-{[1-(2,2-difluoroethyl)-1H-pyrazol-4-yl]sulfonyl}-2H,4H,5H,6H-pyrrolo[3,4-c]pyrazol-5-yl)-2-oxoethyl]-2,3-dihydro-1H-indol-2-one]: in assay [1], the AC50 is 230 nM and the Emax was determined as 212%.

In assay [1], `O=C1COc2ccccc2C(C(=O)N2Cc3cn(S(=O)(=O)c4ccc(OC(F)F)cc4)nc3C2)N1` (stereo not drawn) [Compound 12, 5-{2-[4-(difluoromethoxy)benzenesulfonyl]-2H,4H,5H,6H-pyrrolo[3,4-c]pyrazole-5-carbonyl}-2,3,4,5-tetrahydro-1,4-benzoxazepin-3-one] displayed an AC50 of 210 nM and an Emax of 91%.

`O=C(c1ccc(NS(=O)(=O)c2cccc3cccnc23)cc1)N1CCN(CC2CC2)CC1` [AG-348, Mitapivat]: in assay [3], the “PK activity and ATP levels” value is “increased”; the RBC parameters entry was “improved”.

In assay [1], `O=C1COc2c(F)cccc2C(C(=O)N2Cc3cn(S(=O)(=O)c4cnn(CC(F)F)c4)nc3C2)N1` (stereo not drawn) [Compound 7, 5-(2-{[1-(2,2-difluoroethyl)-1H-pyrazol-4-yl]sulfonyl}-2H,4H,5H,6H-pyrrolo[3,4-c]pyrazole-5-carbonyl)-9-fluoro-2,3,4,5-tetrahydro-1,4-benzoxazepin-3-one] gave an AC50 of 1800 nM and an Emax of 66%.
